pIC50: −log10 of the molar value. Where “and” joins values, the source holds several entries; their conditions need not be identical. Identical values can stand only once.
Legend:
Experiment in all cases: biochemical
Type in all cases: biochemical
various kinases [1] = target: various kinases (Homo sapiens, UniProt P29317); settings: EPHA2
various kinases [2] = target: various kinases (Homo sapiens, UniProt P29322); settings: EPHA8
various kinases [3] = target: various kinases (Homo sapiens, UniProt P35626); settings: ADRBK2 (GRK3)
various kinases [4] = target: various kinases (Homo sapiens, UniProt P36507); settings: MAP2K2 (MEK2)
various kinases [5] = target: various kinases (Homo sapiens, UniProt P36896); settings: ACVR1B (ALK4)
various kinases [6] = target: T1, various kinases (Homo sapiens, UniProt P42681); settings: kinase TXK; ZLYTE
T1 sequence (P42681 1-527): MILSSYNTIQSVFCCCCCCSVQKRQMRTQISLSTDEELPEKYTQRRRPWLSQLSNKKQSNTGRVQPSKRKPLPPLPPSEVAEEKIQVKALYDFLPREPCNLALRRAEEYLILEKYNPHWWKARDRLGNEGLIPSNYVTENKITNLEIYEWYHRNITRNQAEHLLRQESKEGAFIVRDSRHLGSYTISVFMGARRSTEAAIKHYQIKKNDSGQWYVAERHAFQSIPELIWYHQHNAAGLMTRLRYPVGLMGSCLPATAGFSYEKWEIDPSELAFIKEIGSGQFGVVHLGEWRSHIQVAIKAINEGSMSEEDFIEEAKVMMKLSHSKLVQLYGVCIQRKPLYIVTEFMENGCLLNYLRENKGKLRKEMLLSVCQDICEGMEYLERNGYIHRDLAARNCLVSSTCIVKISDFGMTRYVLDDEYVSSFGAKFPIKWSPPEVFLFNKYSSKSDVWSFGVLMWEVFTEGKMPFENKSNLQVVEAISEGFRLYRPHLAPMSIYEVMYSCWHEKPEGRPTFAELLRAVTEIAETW

various kinases [7] = target: various kinases (Homo sapiens, UniProt P42684); settings: ABL2 (Arg)
various kinases [8] = target: various kinases (Homo sapiens, UniProt P45984); settings: MAPK9 (JNK2)
various kinases [9] = target: T2, various kinases (Homo sapiens, UniProt P51817); settings: kinase PRKX; ZLYTE
T2 sequence (P51817 1-358): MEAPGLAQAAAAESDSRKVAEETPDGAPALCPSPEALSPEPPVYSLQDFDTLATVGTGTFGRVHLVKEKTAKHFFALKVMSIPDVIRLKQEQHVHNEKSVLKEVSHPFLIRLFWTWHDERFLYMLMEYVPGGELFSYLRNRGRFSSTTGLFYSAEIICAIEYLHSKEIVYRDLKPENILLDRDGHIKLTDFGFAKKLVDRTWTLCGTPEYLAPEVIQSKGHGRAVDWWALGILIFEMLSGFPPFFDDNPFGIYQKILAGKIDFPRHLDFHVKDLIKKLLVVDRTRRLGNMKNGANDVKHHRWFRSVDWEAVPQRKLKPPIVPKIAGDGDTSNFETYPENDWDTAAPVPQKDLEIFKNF

various kinases [10] = target: various kinases (Homo sapiens, UniProt P53350); settings: kinase PLK1; ZLYTE
various kinases [11] = target: T3, various kinases (Homo sapiens, UniProt Q05513); settings: kinase PRKCZ (PKC zeta); ZLYTE
T3 sequence (Q05513 1-592): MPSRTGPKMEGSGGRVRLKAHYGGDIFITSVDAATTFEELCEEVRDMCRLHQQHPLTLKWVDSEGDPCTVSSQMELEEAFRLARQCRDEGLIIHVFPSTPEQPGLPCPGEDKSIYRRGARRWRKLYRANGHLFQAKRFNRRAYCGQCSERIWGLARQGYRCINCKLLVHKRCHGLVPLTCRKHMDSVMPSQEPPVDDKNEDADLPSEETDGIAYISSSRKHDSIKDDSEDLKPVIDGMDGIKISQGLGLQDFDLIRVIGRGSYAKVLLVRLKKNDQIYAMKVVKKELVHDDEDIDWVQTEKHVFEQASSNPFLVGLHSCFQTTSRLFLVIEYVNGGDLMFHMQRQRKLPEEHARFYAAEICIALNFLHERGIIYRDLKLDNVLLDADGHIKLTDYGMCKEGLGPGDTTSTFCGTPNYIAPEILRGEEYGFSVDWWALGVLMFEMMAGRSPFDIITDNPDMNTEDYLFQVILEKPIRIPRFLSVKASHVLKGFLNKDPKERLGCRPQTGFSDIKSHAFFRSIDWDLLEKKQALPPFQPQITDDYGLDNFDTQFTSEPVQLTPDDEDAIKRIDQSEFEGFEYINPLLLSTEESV

various kinases [12] = target: various kinases (Homo sapiens, UniProt Q08881); settings: ITK
various kinases [13] = target: T4, various kinases (Homo sapiens, UniProt Q13043); settings: kinase STK4 (MST1); ZLYTE
T4 sequence (Q13043 1-487): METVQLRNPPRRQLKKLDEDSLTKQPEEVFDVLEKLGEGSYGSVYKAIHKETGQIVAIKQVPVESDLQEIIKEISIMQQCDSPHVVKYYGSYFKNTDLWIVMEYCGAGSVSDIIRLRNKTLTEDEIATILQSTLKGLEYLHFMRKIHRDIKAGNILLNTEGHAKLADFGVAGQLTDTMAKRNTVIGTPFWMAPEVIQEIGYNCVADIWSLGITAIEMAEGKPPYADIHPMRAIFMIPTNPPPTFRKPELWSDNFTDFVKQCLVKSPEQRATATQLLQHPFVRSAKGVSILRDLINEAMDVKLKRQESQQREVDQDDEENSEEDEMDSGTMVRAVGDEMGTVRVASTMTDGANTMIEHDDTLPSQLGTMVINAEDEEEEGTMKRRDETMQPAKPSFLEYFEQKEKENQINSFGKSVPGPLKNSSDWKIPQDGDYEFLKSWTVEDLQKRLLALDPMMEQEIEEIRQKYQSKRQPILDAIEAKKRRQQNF

various kinases [14] = target: various kinases (Homo sapiens, UniProt Q16644); settings: MAPKAPK3
For % Inhibition Average in this document: test concentration or dose not given here.
For % Inhibition Duplicate #1 in this document: test concentration or dose not given here.
For % Inhibition Duplicate #2 in this document: test concentration or dose not given here.

Chain of various kinases (Homo sapiens, UniProt Q08881) (Q08881 whole entry): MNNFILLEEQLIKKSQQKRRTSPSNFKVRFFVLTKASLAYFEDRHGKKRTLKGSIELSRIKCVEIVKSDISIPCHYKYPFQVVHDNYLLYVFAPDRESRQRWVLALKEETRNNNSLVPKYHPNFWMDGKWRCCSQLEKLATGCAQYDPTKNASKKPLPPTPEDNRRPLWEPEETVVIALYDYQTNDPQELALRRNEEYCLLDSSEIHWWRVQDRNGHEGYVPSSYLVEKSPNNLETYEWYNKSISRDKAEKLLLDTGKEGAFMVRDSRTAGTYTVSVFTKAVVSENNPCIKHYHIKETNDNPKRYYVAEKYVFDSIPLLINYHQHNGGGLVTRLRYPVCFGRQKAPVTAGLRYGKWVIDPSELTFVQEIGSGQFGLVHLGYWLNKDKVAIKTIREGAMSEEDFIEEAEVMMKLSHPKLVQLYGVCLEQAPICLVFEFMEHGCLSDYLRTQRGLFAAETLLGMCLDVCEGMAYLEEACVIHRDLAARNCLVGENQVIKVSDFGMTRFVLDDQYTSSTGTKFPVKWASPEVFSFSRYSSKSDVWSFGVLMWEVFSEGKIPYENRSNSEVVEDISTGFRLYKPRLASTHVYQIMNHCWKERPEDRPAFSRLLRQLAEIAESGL
Chain of various kinases (Homo sapiens, UniProt P53350) (P53350 whole entry): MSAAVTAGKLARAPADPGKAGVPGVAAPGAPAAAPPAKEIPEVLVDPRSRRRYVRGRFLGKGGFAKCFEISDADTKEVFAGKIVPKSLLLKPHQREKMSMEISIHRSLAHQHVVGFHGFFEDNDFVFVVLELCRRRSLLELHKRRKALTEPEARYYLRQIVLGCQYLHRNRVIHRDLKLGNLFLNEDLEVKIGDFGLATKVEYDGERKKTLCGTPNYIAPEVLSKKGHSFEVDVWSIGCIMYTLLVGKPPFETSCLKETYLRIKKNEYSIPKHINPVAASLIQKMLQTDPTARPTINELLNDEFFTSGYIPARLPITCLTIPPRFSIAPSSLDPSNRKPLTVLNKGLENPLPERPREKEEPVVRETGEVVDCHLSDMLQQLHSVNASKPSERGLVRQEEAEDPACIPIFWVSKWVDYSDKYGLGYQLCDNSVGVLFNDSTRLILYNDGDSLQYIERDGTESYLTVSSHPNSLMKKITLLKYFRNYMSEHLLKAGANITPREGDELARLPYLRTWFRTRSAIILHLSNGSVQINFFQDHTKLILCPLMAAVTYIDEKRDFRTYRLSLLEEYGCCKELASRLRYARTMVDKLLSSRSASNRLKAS
Chain of various kinases (Homo sapiens, UniProt P29317) (P29317 24-976): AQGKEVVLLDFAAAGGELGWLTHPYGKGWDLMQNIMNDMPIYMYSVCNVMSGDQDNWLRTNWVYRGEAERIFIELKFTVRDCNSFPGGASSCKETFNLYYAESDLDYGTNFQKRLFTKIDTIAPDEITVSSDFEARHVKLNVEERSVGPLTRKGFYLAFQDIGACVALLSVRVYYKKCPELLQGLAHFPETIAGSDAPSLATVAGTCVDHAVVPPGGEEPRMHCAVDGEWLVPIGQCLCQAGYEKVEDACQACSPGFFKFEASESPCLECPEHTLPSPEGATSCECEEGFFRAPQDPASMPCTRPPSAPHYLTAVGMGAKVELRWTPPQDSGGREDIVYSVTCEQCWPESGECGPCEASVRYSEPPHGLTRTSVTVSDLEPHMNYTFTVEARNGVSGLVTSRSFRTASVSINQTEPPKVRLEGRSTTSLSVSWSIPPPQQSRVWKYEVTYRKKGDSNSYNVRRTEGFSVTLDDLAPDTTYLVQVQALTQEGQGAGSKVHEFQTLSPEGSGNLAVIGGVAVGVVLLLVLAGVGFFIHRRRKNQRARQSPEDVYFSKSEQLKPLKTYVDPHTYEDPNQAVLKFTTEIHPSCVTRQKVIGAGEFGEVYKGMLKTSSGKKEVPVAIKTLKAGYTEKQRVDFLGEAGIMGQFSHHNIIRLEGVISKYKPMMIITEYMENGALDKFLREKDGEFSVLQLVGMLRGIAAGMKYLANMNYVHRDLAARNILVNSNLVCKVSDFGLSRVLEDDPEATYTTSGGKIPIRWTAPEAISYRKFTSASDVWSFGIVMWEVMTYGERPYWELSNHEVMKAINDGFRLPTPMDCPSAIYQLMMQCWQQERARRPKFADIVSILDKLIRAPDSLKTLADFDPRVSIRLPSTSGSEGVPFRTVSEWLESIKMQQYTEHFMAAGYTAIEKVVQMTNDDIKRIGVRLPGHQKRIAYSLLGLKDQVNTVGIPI
Chain of various kinases (Homo sapiens, UniProt P42684) (P42684 whole entry): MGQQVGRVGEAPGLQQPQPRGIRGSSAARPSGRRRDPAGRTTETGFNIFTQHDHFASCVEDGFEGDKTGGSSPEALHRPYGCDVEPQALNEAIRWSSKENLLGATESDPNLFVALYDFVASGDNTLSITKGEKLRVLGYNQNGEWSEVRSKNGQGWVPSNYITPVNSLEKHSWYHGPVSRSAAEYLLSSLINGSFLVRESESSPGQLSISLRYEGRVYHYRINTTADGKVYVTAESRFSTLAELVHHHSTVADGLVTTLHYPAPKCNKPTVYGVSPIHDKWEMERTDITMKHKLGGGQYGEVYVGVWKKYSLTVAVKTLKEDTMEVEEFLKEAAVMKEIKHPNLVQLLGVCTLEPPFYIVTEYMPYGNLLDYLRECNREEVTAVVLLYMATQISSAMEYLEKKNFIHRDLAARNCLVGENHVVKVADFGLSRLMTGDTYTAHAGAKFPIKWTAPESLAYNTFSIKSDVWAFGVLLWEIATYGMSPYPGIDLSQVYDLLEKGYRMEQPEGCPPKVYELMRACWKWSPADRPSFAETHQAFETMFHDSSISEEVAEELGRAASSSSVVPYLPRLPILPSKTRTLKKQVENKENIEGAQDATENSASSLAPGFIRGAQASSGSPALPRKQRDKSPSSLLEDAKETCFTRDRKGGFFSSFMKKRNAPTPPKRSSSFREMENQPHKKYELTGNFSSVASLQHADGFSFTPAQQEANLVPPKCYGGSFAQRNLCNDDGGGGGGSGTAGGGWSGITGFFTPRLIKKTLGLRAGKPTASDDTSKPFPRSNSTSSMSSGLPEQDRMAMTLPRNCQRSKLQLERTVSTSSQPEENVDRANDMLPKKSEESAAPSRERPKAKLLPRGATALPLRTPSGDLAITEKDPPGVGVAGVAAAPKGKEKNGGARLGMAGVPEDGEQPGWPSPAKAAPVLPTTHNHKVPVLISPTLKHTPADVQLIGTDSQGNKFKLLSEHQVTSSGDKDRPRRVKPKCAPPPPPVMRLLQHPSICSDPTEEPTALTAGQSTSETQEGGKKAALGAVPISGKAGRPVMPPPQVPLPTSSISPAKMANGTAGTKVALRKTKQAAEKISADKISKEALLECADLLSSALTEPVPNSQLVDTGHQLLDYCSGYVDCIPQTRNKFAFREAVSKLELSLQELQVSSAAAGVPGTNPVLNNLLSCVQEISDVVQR
Chain of various kinases (Homo sapiens, UniProt Q16644) (Q16644 whole entry): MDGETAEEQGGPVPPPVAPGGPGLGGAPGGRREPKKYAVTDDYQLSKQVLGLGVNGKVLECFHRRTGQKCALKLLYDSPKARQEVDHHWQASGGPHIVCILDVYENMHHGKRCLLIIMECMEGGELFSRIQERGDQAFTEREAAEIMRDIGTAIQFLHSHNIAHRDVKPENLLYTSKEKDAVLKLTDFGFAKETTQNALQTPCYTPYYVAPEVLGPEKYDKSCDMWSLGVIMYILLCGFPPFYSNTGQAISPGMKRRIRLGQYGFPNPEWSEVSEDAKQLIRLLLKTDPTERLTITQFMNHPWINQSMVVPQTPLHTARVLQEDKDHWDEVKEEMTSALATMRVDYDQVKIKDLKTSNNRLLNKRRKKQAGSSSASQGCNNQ
Chain of various kinases (Homo sapiens, UniProt P45984) (P45984 whole entry): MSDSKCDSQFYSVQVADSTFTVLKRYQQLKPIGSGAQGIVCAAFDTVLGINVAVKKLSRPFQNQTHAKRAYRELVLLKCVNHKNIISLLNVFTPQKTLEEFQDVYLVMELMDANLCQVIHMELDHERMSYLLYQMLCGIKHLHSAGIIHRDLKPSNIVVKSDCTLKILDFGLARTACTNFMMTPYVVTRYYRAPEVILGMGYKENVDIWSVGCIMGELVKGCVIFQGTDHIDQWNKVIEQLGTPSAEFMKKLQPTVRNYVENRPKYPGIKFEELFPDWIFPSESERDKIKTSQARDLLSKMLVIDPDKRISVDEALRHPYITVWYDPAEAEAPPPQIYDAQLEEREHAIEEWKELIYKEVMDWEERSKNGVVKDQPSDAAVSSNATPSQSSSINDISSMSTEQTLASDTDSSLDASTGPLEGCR
Chain of various kinases (Homo sapiens, UniProt P36896) (P36896 24-505): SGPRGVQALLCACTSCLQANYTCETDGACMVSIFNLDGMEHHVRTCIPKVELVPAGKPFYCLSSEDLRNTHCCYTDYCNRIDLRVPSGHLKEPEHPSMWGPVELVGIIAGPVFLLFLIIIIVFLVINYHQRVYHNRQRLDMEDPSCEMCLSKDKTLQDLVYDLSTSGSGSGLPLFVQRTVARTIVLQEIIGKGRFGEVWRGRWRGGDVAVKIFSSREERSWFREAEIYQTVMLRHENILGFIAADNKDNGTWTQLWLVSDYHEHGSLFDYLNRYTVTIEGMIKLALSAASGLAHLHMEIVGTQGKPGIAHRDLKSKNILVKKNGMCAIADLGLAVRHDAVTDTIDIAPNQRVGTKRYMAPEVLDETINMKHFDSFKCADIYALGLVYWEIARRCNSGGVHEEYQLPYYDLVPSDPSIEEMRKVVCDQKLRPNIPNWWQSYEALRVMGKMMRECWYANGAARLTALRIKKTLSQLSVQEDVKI
Chain of various kinases (Homo sapiens, UniProt P36507) (P36507 whole entry): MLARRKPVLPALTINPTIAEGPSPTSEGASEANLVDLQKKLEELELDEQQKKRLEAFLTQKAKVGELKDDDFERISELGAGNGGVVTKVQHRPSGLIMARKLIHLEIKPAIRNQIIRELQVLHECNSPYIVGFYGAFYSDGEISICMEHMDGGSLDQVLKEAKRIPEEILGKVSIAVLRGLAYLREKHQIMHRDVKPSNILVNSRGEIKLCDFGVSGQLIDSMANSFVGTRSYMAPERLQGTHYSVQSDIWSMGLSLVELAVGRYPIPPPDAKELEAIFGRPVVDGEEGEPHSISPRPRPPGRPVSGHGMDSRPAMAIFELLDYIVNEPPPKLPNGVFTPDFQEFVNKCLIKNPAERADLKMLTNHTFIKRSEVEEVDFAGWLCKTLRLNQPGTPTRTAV

COc1ccc2c(c1)[C@]1(C[C@H]1c1ccc3c(/C=C/c4ccc(CN5C[C@@H](C)O[C@@H](C)C5)cc4)n[nH]c3c1)C(=O)N2 [CFI-400945]
% Inhibition (various kinases [1]): 14% and 12%
% Inhibition (various kinases [2]): -5% and 0%
% Inhibition (various kinases [3]): 4% and 7%
% Inhibition (various kinases [4]): 7%
% Inhibition (various kinases [5]): -1% and -8%
% Inhibition Average (various kinases [6]): 7%
% Inhibition Duplicate #1 (various kinases [6]): 6%
% Inhibition Duplicate #2 (various kinases [6]): 8%
% Inhibition (various kinases [7]): 58% and 63%
% Inhibition (various kinases [8]): 9% and -1%
% Inhibition Average (various kinases [9]): 5%
% Inhibition Duplicate #1 (various kinases [9]): 6%
% Inhibition Duplicate #2 (various kinases [9]): 4%
% Inhibition Average (various kinases [10]): 5%
% Inhibition Duplicate #1 (various kinases [10]): 6%
% Inhibition Duplicate #2 (various kinases [10]): 5%
% Inhibition Average (various kinases [11]): -11%
% Inhibition Duplicate #1 (various kinases [11]): -22%
% Inhibition Duplicate #2 (various kinases [11]): 0%
% Inhibition (various kinases [12]): 56% and 53%
pIC50 (various kinases [12]): 6.70
% Inhibition Average (various kinases [13]): 23%
% Inhibition Duplicate #1 (various kinases [13]): 22%
% Inhibition Duplicate #2 (various kinases [13]): 24%
% Inhibition (various kinases [14]): 2% and -4%

— article PMC5762315, “Inhibition of polo-like kinase 4 (PLK4): a new therapeutic option for rhabdoid tumors and pediatric medulloblastoma” (Oncotarget, 2017)
